Where two headings read alike, the source gives them in different places.
What was measured:
[1] = molecular target: native PKCβI (Mus musculus, UniProt P68404); experiment: cell-based; type: binding
[2] = molecular target: native PKCγ (Mus musculus, UniProt P63318); experiment: cell-based; type: binding
[3] = molecular target: native PKCδ (Mus musculus, UniProt P28867); experiment: cell-based; type: binding
[4] = molecular target: T1, native PKCε (Mus musculus, UniProt P16054); experiment: cell-based; type: binding
T1 sequence (P16054 1-737): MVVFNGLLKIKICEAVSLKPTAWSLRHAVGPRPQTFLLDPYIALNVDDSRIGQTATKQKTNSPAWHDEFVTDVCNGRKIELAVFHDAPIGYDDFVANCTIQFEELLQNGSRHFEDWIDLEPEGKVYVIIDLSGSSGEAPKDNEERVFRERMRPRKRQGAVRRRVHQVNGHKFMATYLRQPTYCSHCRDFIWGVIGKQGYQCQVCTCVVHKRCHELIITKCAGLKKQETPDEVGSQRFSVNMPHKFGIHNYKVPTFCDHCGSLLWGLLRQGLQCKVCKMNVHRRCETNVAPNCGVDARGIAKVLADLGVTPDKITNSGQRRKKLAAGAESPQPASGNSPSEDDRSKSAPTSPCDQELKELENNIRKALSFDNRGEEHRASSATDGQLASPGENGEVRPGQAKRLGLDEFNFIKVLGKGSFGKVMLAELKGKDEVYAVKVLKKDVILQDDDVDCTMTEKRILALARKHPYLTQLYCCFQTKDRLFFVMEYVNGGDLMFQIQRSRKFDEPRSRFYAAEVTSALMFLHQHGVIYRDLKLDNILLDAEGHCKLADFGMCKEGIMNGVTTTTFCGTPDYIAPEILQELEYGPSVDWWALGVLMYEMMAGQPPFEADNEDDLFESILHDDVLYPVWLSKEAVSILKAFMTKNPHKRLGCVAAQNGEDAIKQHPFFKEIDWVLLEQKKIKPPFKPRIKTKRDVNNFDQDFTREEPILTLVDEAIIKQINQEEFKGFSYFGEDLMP

[5] = molecular target: T2, native PKCζ (Mus musculus, UniProt Q02956); type: binding
T2 sequence (Q02956 1-592): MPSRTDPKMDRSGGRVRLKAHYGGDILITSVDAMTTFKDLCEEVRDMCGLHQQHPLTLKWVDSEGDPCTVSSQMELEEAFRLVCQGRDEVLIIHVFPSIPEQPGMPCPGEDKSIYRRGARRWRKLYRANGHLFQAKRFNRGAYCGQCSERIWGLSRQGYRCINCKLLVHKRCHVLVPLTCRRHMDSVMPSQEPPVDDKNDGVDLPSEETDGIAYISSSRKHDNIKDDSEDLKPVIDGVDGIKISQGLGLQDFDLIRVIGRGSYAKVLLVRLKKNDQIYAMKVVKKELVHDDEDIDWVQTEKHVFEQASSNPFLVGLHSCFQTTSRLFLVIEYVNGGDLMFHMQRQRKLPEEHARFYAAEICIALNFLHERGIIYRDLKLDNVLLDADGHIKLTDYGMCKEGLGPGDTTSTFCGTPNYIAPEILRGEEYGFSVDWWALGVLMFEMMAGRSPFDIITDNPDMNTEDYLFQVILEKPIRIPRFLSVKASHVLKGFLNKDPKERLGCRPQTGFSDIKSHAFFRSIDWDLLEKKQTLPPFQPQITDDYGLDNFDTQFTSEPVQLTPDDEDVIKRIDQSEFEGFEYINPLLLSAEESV

[6] = molecular target: native PKCη (Mus musculus, UniProt P23298); experiment: cell-based; type: binding
Chain of native PKCη (P23298 whole entry): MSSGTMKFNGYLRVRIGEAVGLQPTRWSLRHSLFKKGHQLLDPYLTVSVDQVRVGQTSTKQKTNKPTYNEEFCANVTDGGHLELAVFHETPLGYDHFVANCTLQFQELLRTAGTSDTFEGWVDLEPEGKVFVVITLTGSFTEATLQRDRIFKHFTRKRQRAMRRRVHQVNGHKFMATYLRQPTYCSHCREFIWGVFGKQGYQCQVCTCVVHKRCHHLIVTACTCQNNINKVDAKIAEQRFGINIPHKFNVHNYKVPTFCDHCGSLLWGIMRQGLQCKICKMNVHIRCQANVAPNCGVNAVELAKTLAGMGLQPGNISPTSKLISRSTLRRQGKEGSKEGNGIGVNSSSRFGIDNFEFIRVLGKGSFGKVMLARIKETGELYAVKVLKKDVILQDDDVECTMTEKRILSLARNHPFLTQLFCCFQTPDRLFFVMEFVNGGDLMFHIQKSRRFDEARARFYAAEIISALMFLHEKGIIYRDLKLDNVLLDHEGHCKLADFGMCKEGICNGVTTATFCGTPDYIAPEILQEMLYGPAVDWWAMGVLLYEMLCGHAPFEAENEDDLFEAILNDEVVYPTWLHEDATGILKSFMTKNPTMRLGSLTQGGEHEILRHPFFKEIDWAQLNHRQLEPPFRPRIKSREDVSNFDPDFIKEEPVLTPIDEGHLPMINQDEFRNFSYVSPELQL

[7] = molecular target: native PKCθ (Mus musculus, UniProt Q02111); experiment: cell-based; type: binding
Chain of native PKCθ (Q02111 whole entry): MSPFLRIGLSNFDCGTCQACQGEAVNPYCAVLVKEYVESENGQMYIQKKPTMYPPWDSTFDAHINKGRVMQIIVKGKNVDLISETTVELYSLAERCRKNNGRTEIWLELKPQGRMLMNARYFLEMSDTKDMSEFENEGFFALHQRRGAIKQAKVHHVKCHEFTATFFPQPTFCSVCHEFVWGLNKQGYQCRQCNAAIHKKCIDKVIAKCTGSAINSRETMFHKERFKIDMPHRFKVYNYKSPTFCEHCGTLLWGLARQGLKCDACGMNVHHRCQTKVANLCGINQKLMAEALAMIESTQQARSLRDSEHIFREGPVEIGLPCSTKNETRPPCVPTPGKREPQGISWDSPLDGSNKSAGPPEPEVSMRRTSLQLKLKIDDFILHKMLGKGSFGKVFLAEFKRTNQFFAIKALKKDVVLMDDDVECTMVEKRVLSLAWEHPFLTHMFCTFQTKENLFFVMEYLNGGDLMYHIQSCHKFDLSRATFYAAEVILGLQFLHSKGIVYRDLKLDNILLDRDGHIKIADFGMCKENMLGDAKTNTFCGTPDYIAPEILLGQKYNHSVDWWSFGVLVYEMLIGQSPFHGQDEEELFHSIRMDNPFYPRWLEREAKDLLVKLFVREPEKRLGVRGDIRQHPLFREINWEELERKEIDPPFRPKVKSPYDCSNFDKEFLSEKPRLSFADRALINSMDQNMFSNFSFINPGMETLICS

[8] = molecular target: PKCγ; conditions: read-out: Previously reported biochemical Ki values, Bryostatin 1, [3H]PDBu at 4 °C; cited from earlier work
[9] = molecular target: PKCζ; conditions: [3H]PDBu at 4 °C; cited from earlier work
[10] = molecular target: PKCη; conditions: read-out: Previously reported biochemical Ki values, Bryostatin 1, [3H]PDBu at 4 °C; cited from earlier work
[11] = molecular target: PKCθ; conditions: read-out: Previously reported biochemical Ki values, Bryostatin 1, [3H]PDBu at 4 °C; cited from earlier work
[12] = molecular target: native PKCα (Mus musculus, UniProt P20444); experiment: cell-based
[13] = molecular target: PKCα; conditions: read-out: Previously reported biochemical Ki values, Bryostatin 1, [3H]PDBu at 4 °C; cited from earlier work
[14] = molecular target: PKCβI; conditions: read-out: Previously reported biochemical Ki values, Bryostatin 1, [3H]PDBu at 4 °C; cited from earlier work
[15] = molecular target: PKCε; conditions: read-out: Previously reported biochemical Ki values, Bryostatin 1, [3H]PDBu at 4 °C; cited from earlier work
[16] = tested on: HEK293T cells; experiment: Cytotoxicity towards HEK293T cells; type: cell-based; conditions: treatment for 48 h at concentrations of ≤ 10 μM
[17] = tested on: Jurkat E6-1 cells; experiment: Cytotoxicity towards Jurkat lymphocytes; type: cell-based
[18] = molecular target: PKCδ; conditions: read-out: Previously reported biochemical Ki values, PDBu; cited from earlier work
[19] = read-out: Cellular Ki values for native PKCs

Chain of native PKCβI (P68404 whole entry): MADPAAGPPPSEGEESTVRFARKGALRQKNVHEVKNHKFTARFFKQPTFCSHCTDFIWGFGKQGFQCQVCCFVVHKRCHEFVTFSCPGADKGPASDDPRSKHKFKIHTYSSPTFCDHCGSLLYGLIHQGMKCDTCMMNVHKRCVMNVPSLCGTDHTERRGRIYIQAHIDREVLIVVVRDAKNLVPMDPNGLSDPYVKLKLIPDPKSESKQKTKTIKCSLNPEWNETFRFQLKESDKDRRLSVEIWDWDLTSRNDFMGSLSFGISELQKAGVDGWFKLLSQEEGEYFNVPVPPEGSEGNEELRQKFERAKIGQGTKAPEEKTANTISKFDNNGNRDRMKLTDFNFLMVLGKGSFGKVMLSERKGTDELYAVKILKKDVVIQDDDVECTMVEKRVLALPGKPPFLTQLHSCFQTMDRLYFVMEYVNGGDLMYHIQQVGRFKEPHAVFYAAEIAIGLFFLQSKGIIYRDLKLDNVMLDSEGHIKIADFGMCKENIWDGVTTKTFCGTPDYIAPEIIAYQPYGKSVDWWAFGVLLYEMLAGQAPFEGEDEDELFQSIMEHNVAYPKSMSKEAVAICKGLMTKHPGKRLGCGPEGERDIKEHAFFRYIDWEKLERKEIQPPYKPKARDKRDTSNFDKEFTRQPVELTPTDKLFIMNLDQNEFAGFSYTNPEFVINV
Chain of native PKCδ (P28867 whole entry): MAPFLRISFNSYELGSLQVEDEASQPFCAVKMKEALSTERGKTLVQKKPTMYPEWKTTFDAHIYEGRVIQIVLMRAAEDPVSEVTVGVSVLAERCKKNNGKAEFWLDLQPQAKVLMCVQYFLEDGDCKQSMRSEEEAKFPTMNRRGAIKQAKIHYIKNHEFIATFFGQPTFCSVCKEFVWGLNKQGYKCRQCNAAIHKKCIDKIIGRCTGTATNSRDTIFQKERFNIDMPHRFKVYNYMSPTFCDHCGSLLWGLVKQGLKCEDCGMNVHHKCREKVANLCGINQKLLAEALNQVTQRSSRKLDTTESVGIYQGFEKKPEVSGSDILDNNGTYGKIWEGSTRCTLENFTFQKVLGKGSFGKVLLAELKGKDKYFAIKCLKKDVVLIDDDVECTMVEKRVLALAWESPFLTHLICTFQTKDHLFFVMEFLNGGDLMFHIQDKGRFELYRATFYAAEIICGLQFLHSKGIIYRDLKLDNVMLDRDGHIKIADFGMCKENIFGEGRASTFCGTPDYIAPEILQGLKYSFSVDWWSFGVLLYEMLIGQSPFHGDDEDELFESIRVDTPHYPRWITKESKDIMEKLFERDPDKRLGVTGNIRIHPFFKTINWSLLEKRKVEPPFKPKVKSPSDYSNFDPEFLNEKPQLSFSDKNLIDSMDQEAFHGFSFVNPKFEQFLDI

`CCC/C=C/C=C/C(=O)O[C@H]1/C(=C/C(=O)OC)C[C@H]2C[C@H]([C@@H](C)O)OC(=O)C[C@H](O)C[C@@H]3C[C@H](OC(C)=O)C(C)(C)[C@](O)(C[C@@H]4C/C(=C/C(=O)OC)C[C@H](/C=C/C(C)(C)[C@]1(O)O2)O4)O3` [bryostatin 1] gave a Ki [1] of 2 nM, a Ki [2] of 2 nM and a Ki [3] of 17 nM. The “lower affinity for PKCδ in cells than in biochemical assays” value ([3]; cellular Ki versus previously reported biochemical Ki) was 8 fold, the Ki [4] was 11 nM and the “Cellular Ki values for native PKCs” value ([5]; PKCζ, competition with probe 1, BIM1 2 μM, 2 h 37 °C) was “No binding”. For the same molecule, the Ki [6] was 5 nM, the Ki [7] was 8 nM and the Ki [8] was […]. For the same molecule, the “Previously reported biochemical Ki values, Bryostatin 1” value [9] was “No binding”, the Ki [10] was […] and the Ki [11] was […]. For the same molecule, the Ki [12] was 4 nM, the Ki [13] was […] and the Ki [14] was […]. For the same molecule, the Ki [15] was […].

For `CCCC(=O)O[C@@H]1[C@@H](C)[C@@]2(O)[C@@H](C=C(CO)C[C@]3(O)C(=O)C(C)=C[C@@H]23)[C@@H]2C(C)(C)[C@]12OC(=O)CCC` [PDBu, phorbol 12, 13-dibutyrate], the “fluctuation in measured cellular IC50 and Ki values” [1] was “less than 3 fold”, the Ki [1, 19] was 15 nM and the Ki [2, 19] was 18 nM. For the same molecule, the “lower affinity for PKCδ in cells than in biochemical assays” value [3] was 10 fold, the Ki [3, 19] was 45 nM and the Ki [4, 19] was 43 nM. For the same molecule, the “Cellular Ki values for native PKCs” value [5] was “No binding”, the Ki [6, 19] was 27 nM and the Ki [7, 19] was 49 nM. For the same molecule, the “cytotoxicity towards HEK293T cells” value [16] was “non-toxic”, the IC50 ([17]; read-out: cytotoxic potency towards Jurkat lymphocytes, IC50) was 2 nM and the Ki [18] was […].

For `CN(C)CCCn1cc(C2=C(c3c[nH]c4ccccc34)C(=O)NC2=O)c2ccccc21` [BIM1, bisindolylmaleimide I], the “effect of BIM1 on cytotoxicity of probes 1–3 towards Jurkat lymphocytes” value [17] was “reduced or eliminated” and the “effect of BIM1 on toxicity of PDBu towards Jurkat lymphocytes” value ([17]; BIM1 2 μM) was “completely blocked”.

— paper PMC10910633 (Journal of the American Chemical Society, 2023)
